Test results published in patent US4160643A, “Water soluble cationic azo dyestuffs containing a cyclammonium group” (Imperial Chemical Industries Limited, priority 1976, dated 1979).
Like-named read-outs stand apart in the source and are kept apart here.

Experiments:
[1] = Solubility of dyestuffs in water; assay type: physicochemical
[2] = Behaviour in forming a liquid in a water/acetic acid/sulpholane solvent system; assay type: physicochemical; details: Table 1; ambient temperature
[3] = Table 1, 25° C., read-out: Solubility in water at 25° C.
[4] = Table 3, dyestuff of Example 13 structure, chloride, 25° C., read-out: Solubility in water at 25° C.
[5] = Table 3, dyestuff of Example 13 structure, chloride, 50° C., read-out: Solubility in water at 50° C.
[6] = Table 4, dyestuff of Example 19 structure, acid sulphate, 25° C., read-out: Solubility in water at 25° C.
[7] = Table 4, dyestuff of Example 19 structure, acid sulphate, 50° C., read-out: Solubility in water at 50° C.

With `O=[N+]([O-])c1ccc(N=Nc2ccc(NCC[n+]3ccccc3)c(Cl)c2)cc1` [Pyridine (Table 1)] the solubility [1, 3] was under 2500 µg/mL and the “Solubility of 1 part of dye in 1 part water 1.5 part acetic acid 1 part sulpholane” value [2] was “Not a solution at ambient”.
In the case of `CCN(CC[n+]1ccccc1)c1ccc(N=Nc2ccc([N+](=O)[O-])cc2Cl)cc1` [Pyridine (Table 3)], the solubility [1, 4] is reported as 10000 µg/mL and the solubility [1, 5] is reported as 300000 µg/mL.
For `CCN(CC[n+]1ccccc1)c1ccc(N=Nc2c(Cl)cc([N+](=O)[O-])cc2Cl)cc1` [Pyridine (Table 4)], the solubility [1, 6] was 10000 µg/mL and the solubility [1, 7] was 20000 µg/mL.
With `Cc1cccc[n+]1CCNc1ccc(N=Nc2ccc([N+](=O)[O-])cc2)cc1Cl` [α-picoline] the solubility [1, 3] was under 2500 µg/mL.
For `Cc1cc[n+](CCNc2ccc(N=Nc3ccc([N+](=O)[O-])cc3)cc2Cl)cc1` [γ-picoline (Table 1)], the solubility [1, 3] was 75000 to 100000 µg/mL and the “Solubility of 1 part of dye in 1 part water 1.5 part acetic acid 1 part sulpholane” value [2] was “Not a solution at ambient”.
`CCN(CC[n+]1ccc(C)cc1)c1ccc(N=Nc2ccc([N+](=O)[O-])cc2Cl)cc1` [γ-picoline (Table 3)] showed a solubility [1, 4] of 10000 µg/mL and a solubility [1, 5] of 240000 µg/mL.
`CCN(CC[n+]1ccc(C)cc1)c1ccc(N=Nc2c(Cl)cc([N+](=O)[O-])cc2Cl)cc1` [γ-picoline (Table 4)] showed a solubility [1, 6] of 1000 µg/mL and a solubility [1, 7] of 5000 µg/mL.
